Tests used:
[1] = target: T1, human GLP-IR (Homo sapiens, UniProt P43220); experiment: GLP1 activity | EC50 (M)
Text: Table printed on a drawing sheet, FIG. 1A Head of the field: GLP1 activity | EC50 (M) The patent's description of the figure: FIG. 1A-1B: Synthetic Peptides (FIG. 1A discloses SEQ ID NOS 3948 and 3275-3298 and FIG. 1B discloses SEQ ID NOS 3948 and 3299-3302, all respectively, in order of appearance) First copying reader's note: The first head row prints a reference sequence (residues at positions 7-35) above the position numbers; two fully empty rows separate groups of peptides. Where the first naming reader finds the target: passage: CHOK1 cells stably expressing the human GLP-IR were used to measure peptide or recombinant fusion-induced cAMP production

[2] = target: T1, human GLP-IR; experiment: GLP1 activity | EC50 (pM)
Text: Table printed on a drawing sheet, FIG. 1A
Head of the field: GLP1 activity | EC50 (pM)
The patent's description of the figure: FIG. 1A-1B: Synthetic Peptides (FIG. 1A discloses SEQ ID NOS 3948 and 3275-3298 and FIG. 1B discloses SEQ ID NOS 3948 and 3299-3302, all respectively, in order of appearance)
First copying reader's note: The first head row prints a reference sequence (residues at positions 7-35) above the position numbers; two fully empty rows separate groups of peptides.
Where the first naming reader finds the target: passage: CHOK1 cells stably expressing the human GLP-IR were used to measure peptide or recombinant fusion-induced cAMP production

T1 sequence (P43220 24-463 limits assumed): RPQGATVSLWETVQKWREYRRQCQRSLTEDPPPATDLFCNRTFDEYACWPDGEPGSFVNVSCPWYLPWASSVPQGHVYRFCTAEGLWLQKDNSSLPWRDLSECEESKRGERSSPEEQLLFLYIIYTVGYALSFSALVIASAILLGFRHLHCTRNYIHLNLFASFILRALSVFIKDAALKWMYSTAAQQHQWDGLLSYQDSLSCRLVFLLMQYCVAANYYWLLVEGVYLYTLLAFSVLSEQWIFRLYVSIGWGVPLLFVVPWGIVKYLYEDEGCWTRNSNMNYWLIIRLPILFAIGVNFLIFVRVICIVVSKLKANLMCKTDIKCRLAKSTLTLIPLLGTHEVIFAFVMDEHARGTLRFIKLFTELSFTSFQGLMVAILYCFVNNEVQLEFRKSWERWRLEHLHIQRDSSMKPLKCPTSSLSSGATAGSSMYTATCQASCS

Row | Compound | EC50 [1] [nM] | EC50 [2] [nM]
1 | CC[C@H](C)[C@H](NC(=O)[C@H](Cc1ccccc1)NC(=O)[C@H](CCC(=O)O)NC(=O)[C@H](CCCCN)NC(=O)[C@H](C)NC(=O)[C@H](C)NC(=O)[C@H](CCC(N)=O)NC(=O)CNC(=O)[C@H](CCC(=O)O)NC(=O)[C@H](CC(C)C)NC(=O)[C@H](Cc1ccc(O)cc1)NC(=O)[C@H](CO)NC(=O)[C@H](CO)NC(=O)[C@@H](NC(=O)[C@H](CC(=O)O)NC(=O)[C@H](CO)NC(=O)[C@@H](NC(=O)[C@H](Cc1ccccc1)NC(=O)[C@@H](NC(=O)CNC(=O)[C@H](CCC(=O)O)NC(=O)CNC(=O)[C@H](Cc1c[nH]cn1)NC(=O)[C@H](C)N)[C@@H](C)O)[C@@H](C)O)C(C)C)C(=O)N[C@@H](C)C(=O)N[C@@H](Cc1c[nH]c2ccccc12)C(=O)N[C@@H](CC(C)C)C(=O)N[C@H](C(=O)N[C@@H](CCCCN)C(=O)NCC(=O)O)C(C)C [3166749#1, AHGEGTFTSDVSSYLEGQAAKEFIAWLVKG] | 0.0669 | –
2 | CC[C@H](C)[C@H](NC(=O)[C@H](Cc1ccccc1)NC(=O)[C@H](CCC(=O)O)NC(=O)[C@H](CCCCN)NC(=O)[C@H](C)NC(=O)[C@H](C)NC(=O)[C@H](CCC(N)=O)NC(=O)CNC(=O)[C@H](CCC(=O)O)NC(=O)[C@H](CC(C)C)NC(=O)[C@H](Cc1ccc(O)cc1)NC(=O)[C@H](CO)NC(=O)[C@H](CO)NC(=O)[C@@H](NC(=O)[C@H](CC(=O)O)NC(=O)[C@H](CO)NC(=O)[C@@H](NC(=O)[C@H](Cc1ccccc1)NC(=O)[C@@H](NC(=O)CNC(=O)[C@H](CCC(=O)O)NC(=O)CNC(=O)[C@H](Cc1c[nH]cn1)NC(=O)CN)[C@@H](C)O)[C@@H](C)O)C(C)C)C(=O)N[C@@H](C)C(=O)N[C@@H](Cc1c[nH]c2ccccc12)C(=O)N[C@@H](CC(C)C)C(=O)N[C@H](C(=O)N[C@@H](CCCCN)C(=O)NCC(=O)O)C(C)C [3166961#1, GHGEGTFTSDVSSYLEGQAAKEFIAWLVKG] | – | 0.205
3 | CC[C@H](C)[C@H](NC(=O)[C@H](Cc1ccccc1)NC(=O)[C@H](CCC(=O)O)NC(=O)[C@H](CCCCN)NC(=O)[C@H](C)NC(=O)[C@H](C)NC(=O)[C@H](CCC(N)=O)NC(=O)CNC(=O)[C@H](CCC(=O)O)NC(=O)[C@H](CC(C)C)NC(=O)[C@H](Cc1ccc(O)cc1)NC(=O)[C@H](CO)NC(=O)[C@H](CO)NC(=O)[C@@H](NC(=O)[C@H](CC(=O)O)NC(=O)[C@H](CO)NC(=O)[C@@H](NC(=O)[C@H](Cc1ccccc1)NC(=O)[C@@H](NC(=O)CNC(=O)[C@H](CCC(=O)O)NC(=O)CNC(=O)[C@H](Cc1c[nH]cn1)NC(=O)[C@@H](N)Cc1c[nH]cn1)[C@@H](C)O)[C@@H](C)O)C(C)C)C(=O)N[C@@H](C)C(=O)N[C@@H](Cc1c[nH]c2ccccc12)C(=O)N[C@@H](CC(C)C)C(=O)N[C@H](C(=O)N[C@@H](CCCCN)C(=O)NCC(=O)O)C(C)C [3166962#1, HHGEGTFTSDVSSYLEGQAAKEFIAWLVKG] | – | 0.363
